Results: patent US20050107432A1, “Sigma receptor binder containing indanone derivative” (priority 2002, published 2005)
Where a name gives a salt, the structure may show the parent alone.

Key:
sigma receptor [1] = details: disclosed in J. Med. Chem. 37, 364 (1994), Neuroscience Lett. 260, 5 (1999), JP-A 11-349481; cited from earlier work
acetylcholinesterase = molecular target: T1, acetylcholinesterase (Rattus norvegicus, UniProt P37136); assay: Inhibitory effect on acetylcholinesterase (Ellman method, rat brain homogenate); type: biochemical; details: rat brain homogenate as source of acetylcholinesterase; read-out: Acetylcholinesterase inhibition IC50
T1 construct: from tissue; host or cells: rat brain homogenate
T1 sequence (P37136 32-614): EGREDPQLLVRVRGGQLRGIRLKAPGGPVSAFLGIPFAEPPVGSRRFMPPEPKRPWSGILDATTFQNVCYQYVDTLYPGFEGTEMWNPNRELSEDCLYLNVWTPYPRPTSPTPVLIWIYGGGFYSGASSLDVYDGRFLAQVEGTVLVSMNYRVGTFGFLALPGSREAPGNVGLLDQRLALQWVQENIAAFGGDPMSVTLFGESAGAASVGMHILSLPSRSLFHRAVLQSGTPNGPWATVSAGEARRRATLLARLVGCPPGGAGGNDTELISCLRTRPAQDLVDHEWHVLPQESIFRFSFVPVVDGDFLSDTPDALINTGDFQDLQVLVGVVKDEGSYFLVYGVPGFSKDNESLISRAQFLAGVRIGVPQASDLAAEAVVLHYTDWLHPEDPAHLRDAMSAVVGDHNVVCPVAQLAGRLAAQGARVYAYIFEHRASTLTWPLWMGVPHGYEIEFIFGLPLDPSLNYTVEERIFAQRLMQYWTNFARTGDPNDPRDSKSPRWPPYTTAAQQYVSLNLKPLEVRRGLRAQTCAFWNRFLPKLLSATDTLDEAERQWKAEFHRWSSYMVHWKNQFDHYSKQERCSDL
Method: Inhibitory Effect on Acetylcholinesterase
To DTNB (5,5′-dithiobis(2-nitrobenzoic acid)), acethylthiocholine (as a substrate) and a test compound was added the rat brain homogenate and incubated.

Sigma receptor [2] = assay: Sigma receptor binding assay (3H-DTG, guinea pig brain crude membrane fraction); details: for IC50: inhibition of 3H-DTG binding to guinea pig brain crude membrane fraction, 25° C., 1 hour; for sigma receptor binding action: result in words, no value given
Method: Sigma Receptor Binding Assay
(1) Preparation of Receptor
Ten male guinea pigs (Crj, Hartley, from Charles River Japan, Inc.) (body weight: 234 g to 260 g) were decapitated, exsanguinated and died. The brain was immediately removed, homogenized with ten volumes of 50 mM Tris-HCl (pH 7.4) using a Teflon homogenizer and was centrifuged at a rate of 50000× g at 4° C. for 20 minutes. The washing procedure was repeated once more under the same conditions, and the resulting crude membrane fraction was subjected to the assay.
The filter paper was transferred to a vial for radioactivity measurement, mixed with 5 mL of a liquid scintillation cocktail (Atomlight, from PACKARD), and the radioactivity on the filter was determined by a liquid scintillation counter (Model 1500, from PACKARD) for 2 minutes. The specific binding and the non-specific binding in the absence of the test compound were determined in the same way as above except for using 50% DMSO solution instead of the test compound and using a 100 μM Haloperidol solution instead of the test compound, respectively.
(3) Determination of Inhibition
The inhibitions of the test compound at individual concentrations were determined from the ratio of the specific binding in the presence of the test compound to the specific binding in the absence thereof. The dose-response curve was regressed according to a logit-log model in which the ratio of the specific binding in the presence of the test compound to the specific binding in the absence thereof was subjected to logit transformation and plotted against the common logarithm value of each concentration.

Structure (SMILES)	IC50 (acetylcholinesterase) [nM]	other results
COc1cc2c(cc1OC)C(=O)C(C1CCN(Cc3ccccc3)CC1)C2 (centres unmarked) [1-benzyl-4-(5,6-dimethoxy-1-indanon)-2-yl]piperidine]	–	sigma receptor binding action (sigma receptor [1]): has a sigma receptor binding action
COc1cc2c(cc1OC)C(=O)C(CC1CCN(Cc3ccccc3)CC1)C2 (centres unmarked) [1-benzyl-4-[(5,6-dimethoxy-1-indanon)-2-yl]methylpiperidine]	–	sigma receptor binding action (sigma receptor [1]): has a sigma receptor binding action
CCOc1cc2c(cc1OC)CC(CC1CCN(Cc3ccccc3)CC1)C2=O (centres unmarked) [Example 1, 1-benzyl-4-[(6-ethoxy-5-methoxy-1-indanon)-2-yl]methylpiperidine hydrochloride]	7.2	IC50 (Sigma receptor [2]): 5.1 nM
CCCOc1cc2c(cc1OC)C(=O)C(CC1CCN(Cc3ccccc3)CC1)C2 (centres unmarked) [Example 2, 1-benzyl-4-[[5-methoxy-6-(1-propyloxy)-1-indanon]-2-yl]methylpiperidine hydrochloride]	2.7	–
COc1cc2c(cc1OCC#N)CC(CC1CCN(Cc3ccccc3)CC1)C2=O (centres unmarked) [Example 7, 1-benzyl-4-[(5-cyanomethoxy-6-methoxy-1-indanon)-2-yl]methylpiperidine hydrochloride]	2.4	–
CCOc1cc2c(cc1OCC)C(=O)C(CC1CCN(Cc3cccc(F)c3)CC1)C2 (centres unmarked) [Example 9, 1-(3-fluorobenzyl)-4-[(5,6-diethoxy-1-indanon)-2-yl]methylpiperidine hydrochloride]	3.4	–
CCOc1cc2c(cc1OCC)C(=O)C(CC1CCN(Cc3cccc(C)c3)CC1)C2 (centres unmarked) [Example 15, 1-(3-methylbenzyl)-4-[(5,6-diethoxy-1-indanon)-2-yl]methylpiperidine hydrochloride]	9.1	–
CCOc1cc2c(cc1OC)CC(F)(CC1CCN(Cc3ccccc3)CC1)C2=O (centres unmarked) [Example 37, 1-benzyl-4-[(6-ethoxy-2-fluoro-5-methoxy-1-indanon)-2-yl]methylpiperidine hydrochloride]	0.73	IC50 (Sigma receptor [2]): 4.3 nM
CCOc1cc2c(cc1OC)C(=O)C(F)(CC1CCN(Cc3ccccc3)CC1)C2 (centres unmarked) [Example 38, 1-benzyl-4-[(5-ethoxy-2-fluoro-6-methoxy-1-indanon)-2-yl]methylpiperidine hydrochloride]	0.28	–
CCOc1cc2c(cc1OCC)C(=O)C(F)(CC1CCN(Cc3cccc(Cl)c3)CC1)C2 (centres unmarked) [Example 44, 1-(3-chlorobenzyl)-4-[(5,6-diethoxy-2-fluoro-1-indanon)-2-yl]methylpiperidine hydrochloride]	0.75	–
CCOc1cc2c(cc1OCC)C(=O)C(F)(CC1CCN(Cc3cccc(C)c3)CC1)C2 (centres unmarked) [Example 47, 1-(3-methylbenzyl)-4-[(5,6-diethoxy-2-fluoro-1-indanon)-2-yl]methylpiperidine hydrochloride]	1	–
CCOc1cc2c(cc1OCC)C(=O)C(F)(CC1CCN(CC3CCCCC3)CC1)C2 (centres unmarked) [Example 50, 1-cyclohexylmethyl-4-[(5,6-diethoxy-2-fluoro-1-indanon)-2-yl]methylpiperidine hydrochloride]	1.9	–
COc1cc2c(cc1OC)C(=O)C(Cl)(CC1CCN(Cc3ccccc3)CC1)C2.Cl (centres unmarked) [Example 67, 1-Benzyl-4-[(5,6-dimethoxy-2-chloro-1-indanon)-2-yl]methylpiperidine hydrochloride]	–	sigma receptor binding action (Sigma receptor [2]): found to have a sigma receptor binding action
CCOc1cc2c(cc1OCC)C(=O)C(Cl)(CC1CCN(Cc3ccccc3)CC1)C2.Cl (centres unmarked) [Example 68, 1-Benzyl-4-[(5,6-diethoxy-2-chloro-1-indanon)-2-yl]methylpiperidine hydrochloride]	–	IC50 (Sigma receptor [2]): 2.6 nM; sigma receptor binding action (Sigma receptor [2]): found to have a sigma receptor binding action
CCOc1cc2c(cc1OC)C(=O)C(Cl)(CC1CCN(Cc3ccccc3)CC1)C2.Cl (centres unmarked) [Example 69, 1-Benzyl-4-[(5-ethoxy-6-methoxy-2-chloro-1-indanon)-2-yl]methylpiperidine hydrochloride]	–	sigma receptor binding action (Sigma receptor [2]): found to have a sigma receptor binding action
COc1cc2c(cc1OC)C(=O)C(Br)(CC1CCN(Cc3ccccc3)CC1)C2.Cl (centres unmarked) [Example 70, 1-Benzyl-4-[(5,6-dimethoxy-2-bromo-1-indanon)-2-yl]methylpiperidine hydrochloride]	–	sigma receptor binding action (Sigma receptor [2]): found to have a sigma receptor binding action
COc1cc2c(cc1OC)C(=O)C(C)(CC1CCN(Cc3ccccc3)CC1)C2.Cl (centres unmarked) [Example 71, 1-Benzyl-4-[(5,6-dimethoxy-2-methyl-1-indanon)-2-yl]methylpiperidine hydrochloride]	–	sigma receptor binding action (Sigma receptor [2]): found to have a sigma receptor binding action
